# Assay results published in ChEMBL document CHEMBL4813931, “Boesenmaxane Diterpenoids from Boesenbergia maxwellii” (J Nat Prod, 2021).
# Calls of active or inactive are those of the source. No cut-off for these calls is given here.
# Tests used:
# P388 = experiment: Cytotoxicity against mouse P388 cells measured after 48 hrs by SRB assay; assay type: functional, cell-based
# KB = experiment: Cytotoxicity against human KB cells measured after 48 hrs by SRB assay; assay type: functional, cell-based
# HT-29 = experiment: Cytotoxicity against human HT-29 cells measured after 48 hrs by SRB assay; assay type: functional, cell-based
# MCF7 = experiment: Cytotoxicity against human MCF7 cells measured after 48 hrs by SRB assay; assay type: functional, cell-based
# A549 = experiment: Cytotoxicity against human A549 cells measured after 48 hrs by SRB assay; assay type: functional, cell-based
# ASK = experiment: Cytotoxicity against rat ASK cells measured after 48 hrs by SRB assay; assay type: functional, cell-based
# T-24 = experiment: Cytotoxicity against human T-24 cells measured after 48 hrs by SRB assay; assay type: functional, cell-based
# HEK293 = experiment: Cytotoxicity against human HEK293 cells measured after 48 hrs by SRB assay; assay type: cell-based; details: hek293, 48 h
# [1] = biological target: Human immunodeficiency virus type 1 reverse transcriptase (Human immunodeficiency virus 1) (UniProt Q72547); experiment: Inhibition of HIV-1 reverse transcriptase using poly(rA)/oligo(dT)1 as template/primer incubated for 1 hr by pico-green reagent based fluorescence analysis
# Staphylococcus aureus = experiment: Antibacterial activity against Staphylococcus aureus assessed as bacterial growth inhibition measured after 16 to 18 hrs by Kirby-Bauer disk diffusion method; assay type: functional, organism-based; details: time 16-18 hrs
# Escherichia coli = experiment: Antibacterial activity against Escherichia coli assessed as bacterial growth inhibition measured after 16 to 18 hrs by Kirby-Bauer disk diffusion method; assay type: functional, organism-based; details: time 16-18 hrs
# Enterococcus faecalis = experiment: Antibacterial activity against Enterococcus faecalis assessed as bacterial growth inhibition measured after 16 to 18 hrs by Kirby-Bauer disk diffusion method; assay type: functional, organism-based; details: time 16-18 hrs
# Bacillus cereus = experiment: Antibacterial activity against Bacillus cereus assessed as bacterial growth inhibition measured after 16 to 18 hrs by Kirby-Bauer disk diffusion method; assay type: functional, organism-based; details: time 16-18 hrs
# Candida albicans = experiment: Antifungal activity against Candida albicans assessed as fungal growth inhibition measured after 16 to 18 hrs by Kirby-Bauer disk diffusion method; assay type: functional, organism-based; details: time 16-18 hrs
# [2] = Cytotoxicity against human 1A2 cells measured after 1 hr by XTT assay; assay type: cell-based; details: 1A2, 1 h
# [3] = Selectivity index, ratio of IC50 for human 1A2 cells to EC50 for Human calicivirus strain MC99 infected in human 1A2 cells; assay type: toxicity, cell-based; details: read-out: Ratio IC50/EC50
inhibition [1],SMILES,Activity (P388),Activity (KB),Activity (HT-29),Activity (MCF7),Activity (A549),Activity (ASK),Activity (T-24),Activity (HEK293),inhibition (Staphylococcus aureus),inhibition (Escherichia coli),inhibition (Enterococcus faecalis),inhibition (Bacillus cereus),inhibition (Candida albicans),IC50 [2] [µM],selectivity ratio [3]
inactive,CC1(C)C(=O)CC[C@]2(C)C3=C(C[C@H](C4=CCOC4=O)C3)C(=O)C[C@@H]12,inactive,inactive,inactive,inactive,inactive,inactive,inactive,Non-Toxic,inactive,inactive,inactive,inactive,inactive,–,–
–,CC1(C)CCC[C@]2(C)[C@H]3C[C@@H](C4=CCOC4=O)CC3=CC[C@@H]12,inactive,inactive,inactive,inactive,inactive,inactive,inactive,Non-Toxic,inactive,inactive,inactive,inactive,inactive,381,–
inactive,CC1(C)CCC[C@]2(C)C3=C(C[C@H](C4=CCOC4=O)C3)C(=O)C[C@@H]12,inactive,inactive,inactive,inactive,inactive,inactive,inactive,Non-Toxic,inactive,inactive,inactive,inactive,inactive,> 398,> 7.2
